3 molecules from patent EP0089139A2, “Antibiotics, their preparation and use” (BEECHAM GROUP PLC, priority 1982, dated 1983) can be followed below.

Holding throughout (experiment): standard MIC test
Type in all cases: cell-based

Assay [1] concerns Staphylococcus aureus Russell. The text has this:
(§1) In a standard MIC test the following data were obtained.

Another assay relates to Escherichia coli 0111.
Text: as §1

The test system of assay [2] is Salmonella typhimurium CT10. To be noted: Salmonella enterica.
Text: as §1

The test system of the next assay is E.coli JT39. To be noted: Escherichia coli.
Text: as §1

Molecules are shown by their SMILES. In brackets after ≈: the same amount, converted by molar mass. Where two headings read alike, the source gives them in different places.

On to `C[C@H](O)[C@@H]1C(=O)N2C(C(=O)[O-])=C(Sc3ncccn3)[C@H](C)[C@@H]12.[Na+]` (racemic) [Example 16, Sodium (4RS,5RS,6RS)-4-methyl-6-[(1SR)-1-hydroxyethyl]-3-(pyrimidin-2-ylthio)-7-oxo-1-azabicyclo[3.2.0]hept-2-ene-2-carboxylate], for which the results for the MIC (in assay [1] (Staphylococcus aureus); in the assay on Escherichia coli 0111; in assay [2] (TYPHIMURIUM)) were 0.4 µg/mL, 1.6 µg/mL and 1.6 µg/mL, respectively.

For `C[C@@H](O)[C@H]1C(=O)N2C(C(=O)O)=C(Sc3ncccn3)[C@H](C)[C@H]12` (racemic) [Example 40], the MIC in assay [1] (Staphylococcus aureus Russell, read-out: MIC) came out at 0.4 µg/mL (≈ 1.24 µM); in assay [2] (Salmonella typhimurium CT10, read-out: MIC), 6.2 µg/mL (≈ 19.3 µM); in the assay with E.coli JT39 (E.coli JT39, read-out: M.I.C), 1.6 µg/mL (≈ 4.98 µM).

For `C[C@@H]1C(Sc2ncccn2)=C(C(=O)[O-])N2C(=O)[C@H]([C@@H](C)O)[C@@H]12.[Na+]` [Example 30, Sodium (4S,5S,6S)-4-methyl-6-[(1R)-1-hydroxyethyl]-3-(pyrimidin-2-ylthio)-7-oxo-1-azabicyclo [3.2.0] hept-2-ene-2-carboxylate], the figures for the MIC (in assay [1] (Staphylococcus aureus); in assay [2] (TYPHIMURIUM); in the assay on E.coli JT39 (JT39)) were 0.8 µg/mL, 3.1 µg/mL and 0.8 µg/mL, respectively.
